US5229371A, “Chemical modification of elsamicin A at the 3' and/or 4' OH groups” (Bristol-Myers Squibb Company, priority 1992, dated 1993)
Converted amounts (≈) assume the structure as drawn. Read-outs that look alike come from different tables or passages of the source.

What was measured:
P388 leukemia = experiment: In vivo antitumor activity against lymphocytic leukemia P388 in mice (Q1Dx3, ip); parameters: species or system mouse (female CDF1); settings: for T/C % of MST: Q1D × 3, ip; for minimum effective dose (MED) compared with elsamicin A: T/C ≥125 significant
Experimental: (§1) In vivo antitumor activity of the above five derivatives was tested in the lymphocytic leukemia P388 and melanoma B16 systems. Female CDF1 (for P388) and male BDF1 (for B16) mice were inoculated by ip injection at 10^6 P388 cells and 0.5 ml of a 10% B16 brei per mouse, respectively (day 0).
(§2) The percent increase of median survival time (MST) of treated animals over that of untreated control animals was determined and reported as T/C %.

B16 melanoma = experiment: In vivo antitumor activity against B16 melanoma in mice (Q4Dx3, ip); parameters: species or system mouse (male BDF1); settings: for T/C % of MST / No. of survivors/tested on day 50: Q4D × 3, ip
Experimental: as §1, §2

B16-F10 melanoma cells = experiment: cells; settings: Mus musculus, B16-F10, 72 h, read-out: Cytotoxicity IC50
Experimental: For in vitro cytotoxicity experiment, murine melanoma B16-F10 cells were grown and maintained in Eagle's minimum essential medium (Nissui), which contains kanamycin (60 μg/ml), supplemented with heat-inactivated fetal calf serum (10%) and non-essential amino acids (0.6%) at 37° C. under a humidified atmosphere in a 5% CO2 incubator. Exponentially growing B16-F10 cells were harvested, counted and suspended in the culture medium at the concentration of 2.0×10^4 cells/ml. The cell suspension (180 μl) was planted into wells of a 96-well microtiter plate and incubated for 24 hours. Test compound (20 μl) were added to the wells and the plates were further incubated for 72 hours. The cytotoxic activity was colorimetrically determined at 540 nm after staining viable cells with neutral red solution.

[1] = system: aerobic gram-positive bacteria; settings: cited from earlier work
anaerobic bacteria = settings: cited from earlier work
leukemia P388 [2] = settings: P388, in vitro; cited from earlier work
lymphoid leukemia L1210 [3] = settings: L1210, in vitro; cited from earlier work
melanotic melanoma B16 [4] = settings: B16, in vitro; cited from earlier work
leukemia P388 [5] = settings: P388, in vivo; cited from earlier work
lymphoid leukemia L1210 [6] = settings: L1210, in vivo; cited from earlier work
melanotic melanoma B16 [7] = settings: B16, in vivo; cited from earlier work

COC1OC2C(C)OC(Oc3cccc4c(O)c5c(=O)oc6ccc(C)c7c(=O)oc(c34)c5c67)C(OC3OC(C)C(O)C(OC)C3N)C2(C)O1 (stereo not shown) [Compound 6d, 3',4'-O-Methoxymethylideneelsamicin A]
T/C % of MST (P388 leukemia; P388, 0.1 mg/kg/day): 124%
T/C % of MST (P388 leukemia; P388, 0.3 mg/kg/day): 137%
T/C % of MST (P388 leukemia; P388, 1 mg/kg/day): 167%
T/C % of MST (P388 leukemia; P388, 3 mg/kg/day): 167%
T/C % of MST (P388 leukemia; P388, 10 mg/kg/day): 224%
T/C % of MST (P388 leukemia; P388, 20 mg/kg/day): Tox
minimum effective dose (MED) compared with elsamicin A (P388 leukemia; P388 system): as active as the parent compounds
T/C % of MST (B16 melanoma; B16, 0.1 mg/kg/day): 120%
T/C % of MST (B16 melanoma; B16, 0.3 mg/kg/day): 137%
T/C % of MST (B16 melanoma; B16, 1 mg/kg/day): 167%
T/C % of MST (B16 melanoma; B16, 3 mg/kg/day): 283%
No. of survivors/tested on day 50 (B16 melanoma; B16, 10 mg/kg/day): 3/4
T/C % of MST (B16 melanoma; B16, 10 mg/kg/day): ≥ 333%
response / therapeutic activity (in words) (B16 melanoma; B16 system): extremely potent therapeutic activity
T/C % values compared with elsamicin A (1) (B16 melanoma; B16 system, 3 and 10 mg/kg/day): higher T/C % values
IC50 (B16-F10 melanoma cells): 0.05 µg/mL (≈ 0.0719 µM)

COC1C(N)C(OC2C(Oc3cccc4c(O)c5c(=O)oc6ccc(C)c7c(=O)oc(c34)c5c67)OC(C)C(O)C2(C)O)OC(C)C1O (stereo not shown) [Compound 1, Elsamicin A]
T/C % of MST (P388 leukemia; P388, 0.1 mg/kg/day): 123%
T/C % of MST (P388 leukemia; P388, 0.3 mg/kg/day): 140%
T/C % of MST (P388 leukemia; P388, 1 mg/kg/day): 155%
T/C % of MST (P388 leukemia; P388, 3 mg/kg/day): 180%
T/C % of MST (P388 leukemia; P388, 10 mg/kg/day): 190%
T/C % of MST (P388 leukemia; P388, 20 mg/kg/day): Tox
T/C % of MST (B16 melanoma; B16, 0.1 mg/kg/day): 116%
T/C % of MST (B16 melanoma; B16, 0.3 mg/kg/day): 139%
T/C % of MST (B16 melanoma; B16, 1 mg/kg/day): 179%
No. of survivors/tested on day 50 (B16 melanoma; B16, 3 mg/kg/day): 2/12
T/C % of MST (B16 melanoma; B16, 3 mg/kg/day): ≥ 216%
No. of survivors/tested on day 50 (B16 melanoma; B16, 10 mg/kg/day): 2/12
T/C % of MST (B16 melanoma; B16, 10 mg/kg/day): ≥ 298%
IC50 (B16-F10 melanoma cells): 0.03 µg/mL (≈ 0.0459 µM)
antibacterial activity [1]: exhibits antibacterial activity
antibacterial activity (anaerobic bacteria): exhibits antibacterial activity
activity against murine tumor cells (leukemia P388 [2]): exerts activity
activity against murine tumor cells (lymphoid leukemia L1210 [3]): exerts activity
activity against murine tumor cells (melanotic melanoma B16 [4]): exerts activity
activity against murine tumor cells (leukemia P388 [5]): exerts activity
activity against murine tumor cells (lymphoid leukemia L1210 [6]): exerts activity
activity against murine tumor cells (melanotic melanoma B16 [7]): exerts activity

COC1C(N)C(OC2C(Oc3cccc4c(O)c5c(=O)oc6ccc(C)c7c(=O)oc(c34)c5c67)OC(C)C3OC(c4ccccc4)OC32C)OC(C)C1O (stereo not shown) [Compound 6c, 3',4'-O-Benzylideneelsamicin A]
T/C % of MST (P388 leukemia; P388, 0.1 mg/kg/day): 110%
T/C % of MST (P388 leukemia; P388, 0.3 mg/kg/day): 130%
T/C % of MST (P388 leukemia; P388, 1 mg/kg/day): 150%
T/C % of MST (P388 leukemia; P388, 3 mg/kg/day): 165%
T/C % of MST (P388 leukemia; P388, 10 mg/kg/day): 180%
T/C % of MST (P388 leukemia; P388, 20 mg/kg/day): Tox
minimum effective dose (MED) compared with elsamicin A (P388 leukemia; P388 system): as active as the parent compounds
T/C % of MST (B16 melanoma; B16, 0.1 mg/kg/day): 121%
T/C % of MST (B16 melanoma; B16, 0.3 mg/kg/day): 114%
T/C % of MST (B16 melanoma; B16, 1 mg/kg/day): 136%
T/C % of MST (B16 melanoma; B16, 3 mg/kg/day): 179%
T/C % of MST (B16 melanoma; B16, 10 mg/kg/day): 186%
IC50 (B16-F10 melanoma cells): 0.07 µg/mL (≈ 0.0944 µM)

COC1C(N)C(OC2C(Oc3cccc4c(O)c5c(=O)oc6ccc(C)c7c(=O)oc(c34)c5c67)OC(C)C(OC3CCCCO3)C2(C)O)OC(C)C1O (stereo not shown) [Compound 8, 4'-O-Tetrahydropyranylelsamicin A]
T/C % of MST (P388 leukemia; P388, 0.1 mg/kg/day): 130%
T/C % of MST (P388 leukemia; P388, 0.3 mg/kg/day): 145%
T/C % of MST (P388 leukemia; P388, 1 mg/kg/day): 168%
T/C % of MST (P388 leukemia; P388, 3 mg/kg/day): 190%
T/C % of MST (P388 leukemia; P388, 10 mg/kg/day): 225%
T/C % of MST (P388 leukemia; P388, 20 mg/kg/day): Tox
T/C % values (in words) (P388 leukemia; P388 system): high T/C % values
minimum effective dose (MED) compared with elsamicin A (P388 leukemia; P388 system): three times more potent
T/C % of MST (B16 melanoma; B16, 0.1 mg/kg/day): 133%
T/C % of MST (B16 melanoma; B16, 0.3 mg/kg/day): 159%
T/C % of MST (B16 melanoma; B16, 1 mg/kg/day): 248%
No. of survivors/tested on day 50 (B16 melanoma; B16, 3 mg/kg/day): 1/4
T/C % of MST (B16 melanoma; B16, 3 mg/kg/day): ≥ 281%
No. of survivors/tested on day 50 (B16 melanoma; B16, 10 mg/kg/day): 2/4
T/C % of MST (B16 melanoma; B16, 10 mg/kg/day): ≥ 330%
No. of survivors/tested on day 50 (B16 melanoma; B16, 20 mg/kg/day): 3/4
T/C % of MST (B16 melanoma; B16, 20 mg/kg/day): ≥ 370%
MED and T/C % values compared with elsamicin A (1) (B16 melanoma; B16 system): better than elsamicin A (1)
survivors on day 50 (in words) (B16 melanoma; B16 system, 3~20 mg/kg/day): Some survivors
IC50 (B16-F10 melanoma cells): 0.04 µg/mL (≈ 0.0542 µM)

COC1C(N)C(OC2C(Oc3cccc4c(O)c5c(=O)oc6ccc(C)c7c(=O)oc(c34)c5c67)OC(C)C3OC(C)(C)OC32C)OC(C)C1O (stereo not shown) [Compound 6a, 3',4'-O-Isopropylideneelsamicin A]
T/C % of MST (P388 leukemia; P388, 0.1 mg/kg/day): 120%
T/C % of MST (P388 leukemia; P388, 0.3 mg/kg/day): 140%
T/C % of MST (P388 leukemia; P388, 1 mg/kg/day): 170%
T/C % of MST (P388 leukemia; P388, 3 mg/kg/day): 210%
minimum effective dose (MED) compared with elsamicin A (P388 leukemia; P388 system): as active as the parent compounds
T/C % of MST (B16 melanoma; B16, 0.1 mg/kg/day): 105%
T/C % of MST (B16 melanoma; B16, 0.3 mg/kg/day): 116%
T/C % of MST (B16 melanoma; B16, 1 mg/kg/day): 166%
T/C % of MST (B16 melanoma; B16, 3 mg/kg/day): 192%
T/C % of MST (B16 melanoma; B16, 10 mg/kg/day): 82%
IC50 (B16-F10 melanoma cells): 0.025 µg/mL (≈ 0.036 µM)

COC1C(N)C(OC2C(Oc3cccc4c(O)c5c(=O)oc6ccc(C)c7c(=O)oc(c34)c5c67)OC(C)C3OC4(CCCCC4)OC32C)OC(C)C1O (stereo not shown) [Compound 6b, 3',4'-O-Cyclohexylideneelsamicin A]
T/C % of MST (P388 leukemia; P388, 0.3 mg/kg/day): 120%
T/C % of MST (P388 leukemia; P388, 1 mg/kg/day): 140%
T/C % of MST (P388 leukemia; P388, 3 mg/kg/day): 175%
T/C % of MST (P388 leukemia; P388, 10 mg/kg/day): 165%
T/C % of MST (B16 melanoma; B16, 0.3 mg/kg/day): 111%
T/C % of MST (B16 melanoma; B16, 1 mg/kg/day): 132%
T/C % of MST (B16 melanoma; B16, 3 mg/kg/day): 175%
T/C % of MST (B16 melanoma; B16, 10 mg/kg/day): 200%
IC50 (B16-F10 melanoma cells): 0.04 µg/mL (≈ 0.0545 µM)
